6 molecules from the supplement of paper PMC11061612 can be followed below.

Holding throughout (assay): combination Emax (second highest fraction inhibited in the dose matrix, 72 h); higher = more inhibition; extreme values may be limits of the assay
Test [1] deals with BFTC-905 (Bladder Carcinoma). The method in brief:
(§1)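 After 24 hours at 37°C and 5% CO2 in 1536-well plates, cells in DMEM/F12 or RPMI plus 10% FBS received two-drug dose matrices for 72 hours. Viability came from CellTiter-Glo 2.0 luminescence and was scaled as inhibition, anchored at 0 by vehicle wells and at 1 by blank wells. Combination Emax is taken as the second-highest inhibition in the matrix, and Bliss excess as the observed combination effect less EA + EB − EA·EB, with EA and EB the single-agent effects.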

The test system of test [2] is CAMA-1 (Breast Carcinoma). Put shortly: as §1
The test system of another test is CHP-212 (Neuroblastoma). The method in brief:
as §1

The test system of test [3] is EVSA-T (Breast Carcinoma). The method in brief:
as §1

For test [4], the system named is HL-60 (Acute Myeloid Leukemia). The method in brief: as §1
The subject of test [5] is K-562 (Chronic Myelogenous Leukemia). Put shortly:
as §1

Test [6] relates to KARPAS-45 (T-Lymphoblastic Leukemia). The method in brief: as §1
Test [7] deals with KYSE-180 (Esophageal Squamous Cell Carcinoma). Put shortly:
as §1

The subject of test [8] is L-540 (Hodgkin's Lymphoma). Put shortly:
as §1

The test system of a further test is MEL-JUSO (Melanoma). Put shortly:
as §1

For test [9], the system named is MKN28 (Gastric Carcinoma). Put shortly: as §1
For test [10], the system named is MS751 (Cervical Carcinoma). The method in brief:
as §1

The test system of test [11] is PANC-08-13 (Pancreatic Carcinoma). Put shortly: as §1
The test system of test [12] is SU-DHL-8 (B-Cell Non-Hodgkin's Lymphoma). The method in brief:
as §1

Test [13] relates to SW1417 (Colorectal Carcinoma). The method in brief:
as §1

Test [14] has as its system SW837 (Colorectal Carcinoma). The method in brief:
as §1

In test [15] the test system is TE-6 (Esophageal Squamous Cell Carcinoma). Put shortly: as §1
For test [16], the system named is TOV-112D (Ovarian Carcinoma). The method in brief: as §1
In a further test the test system is U251 (Low Grade Glioma). The method in brief:
as §1

The next test deals with WIL2-NS (Non-Cancerous). Put shortly:
as §1

With `COc1nnc2ccc(N3CCC(c4ccc(OCCN5CCN(C)C(=O)[C@H]5C)cc4)CC3)nn12` [AZD5153] + CCN(CCO)CCCOc1ccc2c(Nc3cc(CC(=O)Nc4cccc(F)c4)[nH]n3)ncnc2c1 [AZD2811] (first compound max 1 µM, 7x7, partner max 1 µM), the “combination Emax” value in [1] came to 0.71; in test [2], 0.497; with CHP-212 (Neuroblastoma), 0.964; in [3] it was 0.938; in test [4], 0.984; in test [5], 0.517. Moreover, the “combination Emax” value in [6] amounted to 1; in test [7] it was 0.397; in test [8] it was 0.716; with MEL-JUSO (Melanoma), 0.37; in [9], 0.43; in test [10] it was 0.789. Besides, the “combination Emax” value amounted to 0.656 in test [11]; 0.982 in test [12]; 0.477 in test [13]; 0.57 in [14]; 0.632 in test [15]; 0.718 in [16]. In addition, the “combination Emax” value was 0.661 in the test with U251 (Low Grade Glioma) and 0.811 in the test on WIL2-NS (Non-Cancerous).

Take `COc1nnc2ccc(N3CCC(c4ccc(OCCN5CCN(C)C(=O)[C@H]5C)cc4)CC3)nn12` [AZD5153] + C[C@@H]1COCCN1C2=NC(=NC(=C2)C3(CC3)[S@](=N)(=O)C)C4=C5C=CNC5=NC=C4 [AZD6738] (first compound max 1 µM, 7x7, partner max 10 µM): the “combination Emax” value came to 0.802 in test [1]; 0.661 in test [2]; 0.967 with CHP-212 (Neuroblastoma); 0.977 in test [3]; 0.985 in test [4]; 0.821 in test [5]. The “combination Emax” value came to 1 in test [6]; 0.591 in test [7]; 0.913 in test [8]; 0.502 in the test on MEL-JUSO (Melanoma); 0.51 in test [9]; 0.911 in test [10]. For the same molecule, the “combination Emax” value worked out at 0.831 in [11]; 0.996 in test [12]; 0.662 in test [13]; 0.756 in [14]; 0.79 in test [15]; 0.849 in test [16]. The results for the “combination Emax” value in the test on U251 (Low Grade Glioma) and in the test on WIL2-NS (Non-Cancerous) were 0.836 and 0.935, respectively.

Take `COc1nnc2ccc(N3CCC(c4ccc(OCCN5CCN(C)C(=O)[C@H]5C)cc4)CC3)nn12` [AZD5153] + Cc1c2c(nn1C)CSCc1cc(n(C)n1)CSc1cc(c3ccccc3c1)OCCCc1c(C(=O)O)n(C)c3c-2c(Cl)ccc13 [AZD5991] (first compound max 1 µM, 7x7, partner max 1 µM): the “combination Emax” value in test [1] was 0.746; in test [2], 0.951; in the test on CHP-212 (Neuroblastoma), 1; in [3], 1; in [4] it was 1; in test [5] it was 0.5. Moreover, the “combination Emax” value in test [6] was 1; in test [7] it was 0.513; in test [8] it was 1; with MEL-JUSO (Melanoma), 0.306; in test [9] it was 0.462; in [10], 0.919. In addition, the “combination Emax” value in test [11] stood at 0.825; in test [12] it was 0.998; in test [13] it was 0.459; in test [14], 0.571; in test [15] it was 0.77; in test [16], 0.986. In addition, the figures for the “combination Emax” value in the test on U251 (Low Grade Glioma) and with WIL2-NS (Non-Cancerous) were 0.65 and 0.849, respectively.

On to `COc1nnc2ccc(N3CCC(c4ccc(OCCN5CCN(C)C(=O)[C@H]5C)cc4)CC3)nn12` [AZD5153] + Cn1cnc2c(F)c(Nc3ccc(Br)cc3Cl)c(C(=O)NOCCO)cc21 [Selumetinib] (first compound max 1 µM, 7x7, partner max 10 µM), for which the “combination Emax” value in test [1] turned out to be 0.873; in test [2] it was 0.506; in the test with CHP-212 (Neuroblastoma) it was 0.989; in test [3] it was 0.942; in test [4], 0.966; in test [5] it was 0.469. Further, the “combination Emax” value came to 1 in [6]; 0.401 in test [7]; 0.628 in test [8]; 0.59 in the test on MEL-JUSO (Melanoma); 0.416 in test [9]; 0.849 in test [10]. In addition, the “combination Emax” value in [11] is 0.805; in test [12], 0.955; in test [13], 0.778; in test [14], 0.753; in [15], 0.711; in test [16] it was 0.684. For the same molecule, the “combination Emax” value came out at 0.592 in the test with U251 (Low Grade Glioma) and 0.881 with WIL2-NS (Non-Cancerous).

Regarding `Cc1c2c(nn1C)CSCc1cc(n(C)n1)CSc1cc(c3ccccc3c1)OCCCc1c(C(=O)O)n(C)c3c-2c(Cl)ccc13` [AZD5991] + C=CCn1c(=O)c2cnc(Nc3ccc(N4CCN(C)CC4)cc3)nc2n1-c1cccc(C(C)(C)O)n1 [AZD1775] (first compound max 1 µM, partner max 1 µM), the “combination Emax” value in test [1] came to 0.673; in test [2] it was 0.635; in the test on CHP-212 (Neuroblastoma), 0.916; in test [3], 1; in [4], 1; in test [5], 0.747. The “combination Emax” value in test [6] was 1; in test [7], 0.95; in test [8] it was 1; in the test with MEL-JUSO (Melanoma), 0.749; in test [9], 0.572; in [10] it was 0.9. The “combination Emax” value amounted to 0.379 in [11]; 1 in test [12]; 0.542 in test [13]; 0.406 in test [14]; 0.773 in [15]; 0.714 in test [16]. Moreover, the “combination Emax” value stood at 0.423 with U251 (Low Grade Glioma) and 0.963 in the test on WIL2-NS (Non-Cancerous).

Take `Cc1c2c(nn1C)CSCc1cc(n(C)n1)CSc1cc(c3ccccc3c1)OCCCc1c(C(=O)O)n(C)c3c-2c(Cl)ccc13` [AZD5991] + CC1(C)CCC(CN2CCN(c3ccc(C(=O)NS(=O)(=O)c4ccc(NCC5CCOCC5)c([N+](=O)[O-])c4)c(Oc4cnc5[nH]ccc5c4)c3)CC2)=C(c2ccc(Cl)cc2)C1 [Venetoclax] (first compound max 1 µM, 7x7, partner max 1 µM): the “combination Emax” value in [1] amounted to 0.604; in [2], 0.934; with CHP-212 (Neuroblastoma) it was 0.835; in test [3], 1; in test [4], 1; in [5], 0.226. Besides, the “combination Emax” value worked out at 1 in [6]; 0.922 in test [7]; 1 in test [8]; 0.339 in the test with MEL-JUSO (Melanoma); 0.126 in test [9]; 0.812 in test [10]. Also, the “combination Emax” value was 0.116 in test [11]; 0.861 in test [12]; 0.191 in test [13]; 0.184 in test [14]; 0.677 in test [15]; 0.777 in [16]. Also, the entries for the “combination Emax” value with U251 (Low Grade Glioma) and in the test on WIL2-NS (Non-Cancerous) were 0.239 and 0.23, respectively.
